The values below come from patent US8835433B2, “Optically pure diastereomers of 10-Propargyl-10-deazaaminopterin and methods of using same for the treatment of cancer” (Allos Therapeutics, Inc., priority 2010, dated 2014).

For series [1], the system named is CWR22-RV1 (prostate) cell lines. The series is described as follows: MTS growth inhibition assay, CWR22-RV1. The note with it: Homo sapiens, CWR22Rv1, separate experiments. Type of series: cell-based.
Series [2] can be described thus: Pharmacokinetics in human (PDX-008, noncompartmental). Type of series: in vivo. The note with it: for Vd / clearance / half-life: human, plasma, intravenous; for half-life: read-out: t1/2 term. The procedure: (§1) Bioanalytical methods were developed and validated for quantitation of the 2 pralatrexate C10 diastereomers (PDX-10a and PDX-10b) in human, rat and dog plasma and urine. The basic bioanalytical method involves extraction of PDX-10a and PDX-10b from the matrix utilizing C18 solid-phase extraction (SPE) cartridges followed by derivatization (methylation with acetyl chloride) of the diastereomers for separation detection. The derivatized extracts are injected on a chiral high-performance liquid chromatography (HPLC) column for quantitation of each diastereomer by liquid chromatography-tandem mass spectrometry (LC/MS/MS). The lower limit of quantitation (LLOQ) for both diastereomers in plasma and urine matrices was 0.5 ng/mL.
In humans, PDX-10b clearance was approximately 50% lower for both renal clearance (CLren) and nonrenal clearance (CLnonren). The lower clearance and ˜2-fold lower volume of distribution at steady state (Vdss) of PDX-10b are likely responsible for the 2-fold higher plasma exposure of PDX-10b compared with PDX-10a that is observed in humans. However, the plasma concentration-time profiles for both diastereomers declined in parallel, and terminal elimination half-life (t1/2term) for both diastereomers was virtually identical. The biological cause for the observed stereoselectivity across species is unknown, but may be due to isomeric differences in plasma protein binding. Isomeric differences in tissue distribution and/or renal and hepatobiliary transport may contribute as well.

The nature of series [3]: Pharmacokinetics in rat (PDX-T-07034-R). Type of series: in vivo. The note with it: plasma, 5 mg/kg; for half-life: read-out: t1/2 term. The procedure: as §1, with “ng/mL. […]” for “ng/mL.”
The subject of series [4] is NCI-H460 (lung cancer) human tumor cell line. The series is described as follows: MTS growth inhibition assay, NCI-H460. Type of series: cell-based. The protocol: The agents PDX, PDX-10a, PDX-10b, were evaluated for growth inhibitory activity against, MDA-MB-435, SKBR-3 and NCI-H460 human tumor cell lines. Growth inhibition was measured by MTS assay following three hours of continuous treatment and a seventy-two hour recovery incubation. The purpose of these studies was to determine the cytotoxic activity of the compounds in the tumor cell lines studies studied.
Materials and Methods. Preparation of PDX-10a and PDX-10b was performed as discussed in Examples 1-2. The PDX compounds were diluted in dimethylsulfoxide (DMSO) at a concentration of 20 mM. From this solution a stock solution of 2 mM was made by dilution with phosphate-buffered saline (PBS). This 2 mM stock solution in 10% DMSO/90% PBS was used to make 2× concentrations of the titration series in cell growth medium which was added to the cell cultures in a 1:1 ratio to make 1× concentrations. Cell lines—The human tumor cell lines: MDA-MB-435 (melanoma), SKBR-3 (breast cancer) and NCI-H460 (lung cancer) were cultured in RPMI medium (RPMI; Nova Tech, Grand Island, N.Y.) containing ten percent dialyzed fetal bovine serum (FBS; Nova Tech). Once cells reached seventy percent confluency, they were trypsinized and resuspended in an alternate media (RPMI containing five percent dialyzed FBS (Hyclone, Logan, Utah). One day prior to treatment (Day 0), cultures were suspended at a concentration of 1−7.5×10^4 cell/ml and 100 μl aliquots were plated into each well of a 96-well microtiter plate at a final concentration of 1×10^3-7.5×10^3 cells/well. Cells were incubated for 24 hours at 37° C. prior to exposure with agents.
Test Agents—racemic PDX, and individual diastereomers PDX-10a and PDX-10b were prepared as described above. Cells were treated 24 hours after plating (Day 1) with vehicle (media) alone or the above test agents for three hours at concentrations between 3 μM and 10 μM.
Single Agent Pulse Studies—Treatment with test agents or standard agents (controls) was initiated 24 hours after plating cells (Day 1). Cells were incubated at 37° C. with each of the test agents or a “chemococktail” (positive control) consisting of 215 μM Etoposide, 20 μM Taxol, 38.5 nM Velcade at final concentration for three hours. Following treatment, drug was removed, growth media added, and cells incubated at 37° C. for 72 hours. Following incubation, the viable cell number was quantified by the MTS assay described below. Experiments were repeated twice at the same concentrations. Results from these studies were used to calculate an IC50 value (concentration of drug that inhibits cell growth by 50% of the vehicle) for each compound. IC50 values were generated with Prizm software.
MTS Assay—Cell viability was determined using the MTS assay. This colorimetric procedure measures conversion of the MTS reagent (a tetrazolium salt) to formazan by living cells. Formazan production was quantified by spectrophotometric measurement at 490 nm and is proportional to viable cell number. For these studies, cells were cultured and treated as listed above. At the end of the treatment, 20 μl MTS tetrazolium (1.9 mg/ml in PBS, pH 6.0) was added to the cells for 1 hour at 37° C. Absorbance (OD) values were measured using a Dynex HD microplate reader at a single wavelength of 490 nm.
Data Analysis—Data from each experiment was collected and expressed as OD490 versus the log10 of the test agent concentration. Using the statistical analysis package of the Prizm analytical software (GraphPad, San Diego, Calif.), a non-linear curve fit was performed which yielded the 50% inhibition concentration of the test article (IC50).

Where [5] appears, read: both sexes, 0.81 mg/kg, C1D1, calculated using average BW 85 kg, read-out: Vdss relative to BW.
The mark [6] stands for this setting: both sexes, 30 mg/m2, human, C1D1, 30 mg/m^2, range of the mean for males and females and for PDX-10a and PDX-10b, read-out: CLtot.
The mark [7] stands for this setting: both sexes, 30 mg/m2, human, C1D1, 30 mg/m^2, range of the mean for males and females and for PDX-10a and PDX-10b, read-out: Vdss.
The mark [8] stands for this setting: both sexes, 30 mg/m2, human, C1D1, 30 mg/m^2, range of the mean for males and females and for PDX-10a and PDX-10b.
Where [9] appears, read: both sexes, 30 mg/m2, human, C1D6 or C2D6, 30 mg/m^2, range of the mean for males and females and for PDX-10a and PDX-10b, read-out: CLtot.
The mark [10] stands for this setting: both sexes, 30 mg/m2, human, C1D6 or C2D6, 30 mg/m^2, range of the mean for males and females and for PDX-10a and PDX-10b, read-out: Vdss.
The mark [11] stands for this setting: both sexes, 30 mg/m2, human, C1D6 or C2D6, 30 mg/m^2, range of the mean for males and females and for PDX-10a and PDX-10b.
Setting [12] is: 0.81 mg/kg, C1D1, calculated using average BW 85 kg, read-out: CLtot relative to BW.
[13] abbreviates: both sexes, Day 1, 5 mg/kg, range of the mean for males and females and for PDX-10a and PDX-10b, read-out: CLtot.
Where [14] appears, read: both sexes, Day 1, 5 mg/kg, range of the mean for males and females and for PDX-10a and PDX-10b, read-out: Vdss.
Setting [15] is: both sexes, Day 1, 5 mg/kg, range of the mean for males and females and for PDX-10a and PDX-10b.
Setting [16] is: both sexes, Day 1, calculated using average BW 0.35 kg, read-out: Vdss relative to BW.
The mark [17] stands for this setting: both sexes, Day 85, 5 mg/kg, range of the mean for males and females and for PDX-10a and PDX-10b, read-out: CLtot.
[18] abbreviates: both sexes, Day 85, 5 mg/kg, range of the mean for males and females and for PDX-10a and PDX-10b, read-out: Vdss.
Setting [19] is: both sexes, Day 85, 5 mg/kg, range of the mean for males and females and for PDX-10a and PDX-10b.
Where [20] appears, read: Day 1, calculated using average BW 0.35 kg, read-out: CLtot relative to BW.
[21] abbreviates: Homo sapiens, NCI-H460, NCI-H460 (lung), 3 h treatment, 72 h recovery, MTS.
The mark [22] stands for this setting: Homo sapiens, NCI-H460, NCI-H460 repeat assay.

In general, IC50 refers to the concentration needed to halve the response being measured. In the case of `C#CC[C@@H](Cc1cnc2nc(N)nc(N)c2n1)c1ccc(C(=O)N[C@@H](CCC(=O)O)C(=O)O)cc1` (single isomer, unassigned) [PDX-10a], the IC50 was found to be 13.3 nM in series [1], 289 nM in series [4] (setting [21]), 169 nM in series [4] (setting [22]) and 169 nM in series [4] (NCI-H460 repeat assay). Moreover, the Vd in series [2] (setting [5]) was 0.4 to 1.2 L/kg; in series [2] (setting [7]), 37 to 105 L; in series [2] (setting [10]) it was 48 to 162 L; in series [3] (setting [14]), 0.07 to 0.89 L; in series [3] (setting [16]) it was 0.2 to 2.5 L/kg; in series [3] (setting [18]), 0.15 to 0.18 L. Further, the clearance was 191 to 417 mL/min in series [2] (setting [6]); 227 to 495 mL/min in series [2] (setting [9]); 2 to 5 mL/min/kg in series [2] (setting [12]); 2.9 to 4 mL/min in series [3] (setting [13]); 3.4 to 3.9 mL/min in series [3] (setting [17]); ~10 mL/min/kg in series [3] (setting [20]). The half-life in series [2] (setting [8]) was 12 to 18 h; in series [2] (setting [11]) it was 11 to 16 h; in series [3] (setting [15]), 1 to 20 h; in series [3] (setting [19]), 1 to 6 h.

With `C#CC[C@H](Cc1cnc2nc(N)nc(N)c2n1)c1ccc(C(=O)N[C@@H](CCC(=O)O)C(=O)O)cc1` (single isomer, unassigned) [PDX-10b], the IC50 was determined as 8.5 nM in series [1], 45.8 nM in series [4] (setting [21]) and 46.2 nM in series [4] (setting [22]). Moreover, the Vd was 0.4 to 1.2 L/kg in series [2] (setting [5]); 37 to 105 L in series [2] (setting [7]); 48 to 162 L in series [2] (setting [10]); 0.07 to 0.89 L in series [3] (setting [14]); 0.2 to 2.5 L/kg in series [3] (setting [16]); 0.15 to 0.18 L in series [3] (setting [18]). Further, the clearance in series [2] (setting [6]) is 191 to 417 mL/min; in series [2] (setting [9]), 227 to 495 mL/min; in series [2] (setting [12]), 2 to 5 mL/min/kg; in series [3] (setting [13]), 2.9 to 4 mL/min; in series [3] (setting [17]), 3.4 to 3.9 mL/min; in series [3] (setting [20]), ~10 mL/min/kg. Further, the half-life in series [2] (setting [8]) fell in the range of 12 to 18 h; in series [2] (setting [11]), 11 to 16 h; in series [3] (setting [15]) it was 1 to 20 h; in series [3] (setting [19]), 1 to 6 h. Besides, in series [2] (humans), the “higher plasma exposure compared with PDX-10a” value came out at 2 fold. The “lower volume of distribution at steady state (Vdss) compared with PDX-10a” value in series [2] (humans) is listed as ~2 fold. Further, the “nonrenal clearance (CLnonren) lower compared with PDX-10a” value in series [2] (humans) was “approximately 50%”. Moreover, in series [2] (humans), the “renal clearance (CLren) lower compared with PDX-10a” value was “approximately 50%”.
